The text below walks through data of patent US9284283B2, “Macrocyclic compounds for modulating IL-17” (ENSEMBLE THERAPEUTICS CORPORATION, priority 2012, dated 2016).

A word on the IC50: it is the midpoint of a concentration-inhibition curve.

Bounds are passed on as bounds.

The assay deals with T1, recombinant human IL17a (binding to its receptor IL17R) (Homo sapiens, UniProt Q16552).
T1 construct: purchased R&D Systems 317-ILB (IL17a); 177-IR (IL17R/Fc)
T1 sequence (Q16552 20-155 limits assumed): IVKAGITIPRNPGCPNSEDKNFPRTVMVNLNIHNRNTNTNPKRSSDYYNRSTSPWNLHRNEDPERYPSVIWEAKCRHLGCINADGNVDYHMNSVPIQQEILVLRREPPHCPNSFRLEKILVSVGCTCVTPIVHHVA
The assay can be described thus: IL-17 competition ELISA I (IL17a coated, IL17R/Fc binding). On the procedure:
ELISA I: The ability of the compounds to block binding of IL17a to its receptor, IL17R, was analyzed in a competition ELISA format. High binding 96-well plates (Costar #9018) were coated with 20 nM of recombinant human IL17a (R&D Systems #317-ILB) in PBS (0.64 μg/mL), 100 μL/well, for 30 min at 37′C followed by 5 min at 4′C. Plates were then washed in PBST (PBS/0.05% Tween-20) on a plate washer, (Biotech EL-450) blocked with protein-free blocking buffer (Thermo Scientific #37573) in 250 μL/well for 30 min on shaker at room temperature, and then washed again. Compound dilutions prepared in PBST were added into the wells in duplicates followed by the addition of IL17R/Fc (R&D Systems #177-IR) at a final concentration of 12 nM. Plates were then incubated for 30 min at room temperature on the shaker. Wells with no compound served as a positive “no competitor” control, while wells with no IL17R/Fc and no compound served as a blank negative control. After an additional PBST wash, 50 ng/mL HRP-conjugated goat anti-human Fc IgG (KPL #04-10-20) was added to the plate for 30 min at room temperature, followed by PBST wash and addition of SureBlue™ TMB (KPL #52-00-03). After the sufficient color development, the reaction was fixed by the addition of 100 μL/well 0.5 N HCl and absorbance was measured at 450 nm on Biotek plate reader.
Data were processed using BioAssay Enterprise v10.1.4 (CambridgeSoft) software. Linear OD λ450 were plotted against log concentration (x) and fitted to a 4-parameter logistic equation. IC50 was calculated using positive ‘no competitor’ control data as an upper limit and blank control as a lower limit in each assay.
A general note: In an ELISA, binding on a coated surface is turned into a signal by an enzyme label.
Regarding `O=C1CNC(=O)[C@@H](Cc2ccc(NC(=O)[C@H](Cc3ccccc3Cl)NC(=O)c3ccc(F)c(F)c3F)cc2)NC(=O)CC2(CCCC2)CC(=O)NCCCCCN1` [Compound 328], the IC50 is 100 to 1000 nM.

`O=C1CNC(=O)[C@@H](Cc2ccc(NC(=O)[C@H](Cc3ccccc3Cl)NC(=O)c3cc(F)c(F)cc3F)cc2)NC(=O)CC2(CCCC2)CC(=O)NCCCCCN1` [Compound 329]: the IC50 is 100 to 1000 nM.

Regarding `O=C1CNC(=O)[C@@H](Cc2ccc(NC(=O)[C@H](Cc3ccccc3Cl)NC(=O)c3cncnc3)cc2)NC(=O)CC2(CCCC2)CC(=O)NCCCCCN1` [Compound 327], the IC50 was less than 100 nM.

As for `O=C1CNC(=O)[C@@H](Cc2ccc(NC(=O)[C@H](Cc3ccccc3Cl)NC(=O)CN3CCCCC3)cc2)NC(=O)CC2(CCCC2)CC(=O)NCCCCCN1` [Compound 300], the IC50 was 100 to 1000 nM.

`COC(=O)[C@@H]1CCCCNC(=O)CNC(=O)[C@@H](Cc2ccc(NC(=O)[C@H](Cc3ccccc3Cl)NC(C)=O)cc2)NC(=O)CC2(CCCC2)CC(=O)N1` [Compound 248]: the half-inhibitory concentration (IC50) was less than 100 nM.

As for `O=C1CNC(=O)C(Cc2ccc(NC(=O)C(Cc3cccc(Cl)c3)NC(=O)Cc3ccccc3)cc2)NC(=O)CC2(CCCC2)CC(=O)NCCCCCN1` (centres unmarked) [Compound 239], the IC50 was less than 100 nM.

Regarding `O=C1CC2(CCCC2)CC(=O)N[C@H](Cc2ccc(NC(=O)[C@@H](NC(=O)Cc3ccccc3)C3CCCCC3)cc2)C(=O)N[C@H](Cc2ccccc2)C(=O)NCCCCCN1` [Compound 331], the IC50 fell in the range of 100 to 1000 nM.

Consider `O=C1CNC(=O)[C@@H](Cc2ccc(NC(=O)[C@H](Cc3ccccc3Cl)NS(=O)(=O)c3ccccc3)cc2)NC(=O)CC2(CCCC2)CC(=O)NCCCCCN1` [Compound 271], for which the IC50 is 1000 to 10000 nM.

Consider `O=C1CNC(=O)[C@@H](Cc2ccc(NC(=O)[C@H](Cc3ccccc3Cl)NC(=O)c3ccc(F)cc3O)cc2)NC(=O)CC2(CCCC2)CC(=O)NCCCCCN1` [Compound 278], for which the IC50 was 1000 to 10000 nM.

As for `CN1CCCCCNC(=O)CC2(CCCC2)CC(=O)N[C@H](Cc2ccc(NC(=O)[C@H](Cc3ccccc3Cl)NC(=O)Cc3ccc(O)cc3)cc2)C(=O)NCC1=O` [Compound 307], the IC50 was less than 100 nM.

In the case of `C[C@@H]1NC(=O)[C@@H](Cc2ccc(NC(=O)[C@H](Cc3ccccc3Cl)NC(=O)Cc3ccccc3)cc2)NC(=O)CC2(CCCC2)CC(=O)NCCCCCNC1=O` [Compound 290], the IC50 lay within 100 to 1000 nM.

As to `O=C1CNC(=O)[C@@H](Cc2ccc(NC(=O)[C@H](Cc3ccccc3Cl)NC(=O)c3ccc(C(=O)O)cc3)cc2)NC(=O)CC2(CCCC2)CC(=O)NCCCCCN1` [Compound 299], the IC50 was in the range of 1000 to 10000 nM.

On to `O=C1CNC(=O)[C@@H](Cc2ccc(NC(=O)[C@H](Cc3ccccc3Cl)NC(=O)c3ncco3)cc2)NC(=O)CC2(CCCC2)CC(=O)NCCCCCN1` [Compound 235], for which the IC50 lay in the range of 100 to 1000 nM.

On to `COC(=O)[C@@H]1CCCCNC(=O)CNC(=O)[C@@H](Cc2ccc(NC(=O)[C@@H](NC(=O)Cc3ccccc3)C3CCCCC3)cc2)NC(=O)CC2(CCCC2)CC(=O)N1` [Compound 282], for which the half-inhibitory concentration (IC50) was less than 100 nM.

As for `CC1(C)CC(=O)NCCCCCNC(=O)CNC(=O)[C@@H](Cc2ccc(NC(=O)[C@H](CC3CCC3)NC(=O)Cc3ccccc3)cc2)NC(=O)C1` [Compound 247], the IC50 was in the range of 100 to 1000 nM.

Take `CC1(C)CC(=O)NCCCCCNC(=O)CNC(=O)[C@@H](Cc2ccc(NC(=O)[C@H](Cc3cccs3)NC(=O)c3cccnc3)cc2)NC(=O)C1` [Compound 258]: the half-inhibitory concentration (IC50) lay in the range of 1000 to 10000 nM.

For `CN1CCCCCNC(=O)CC2(CCCC2)CC(=O)N[C@H](Cc2ccc(NC(=O)[C@H](Cc3ccccc3Cl)NC(=O)c3ccc(F)cc3)cc2)C(=O)NCC1=O` [Compound 308], the IC50 fell in the range of 100 to 1000 nM.

With `O=C1CC2(CCCC2)CC(=O)N[C@H](Cc2ccc(NC(=O)[C@H](Cc3ccccc3Cl)NC(=O)Cc3ccc(O)cc3)cc2)C(=O)N[C@H](Cc2ccccc2)C(=O)NCCCCCN1` [Compound 262], the IC50 was less than 100 nM.

On to `O=C1CNC(=O)[C@@H](Cc2ccc(NC(=O)[C@H](Cc3ccccc3Cl)NC(=O)CN3CCOCC3)cc2)NC(=O)CC2(CCCC2)CC(=O)NCCCCCN1` [Compound 304], for which the 50% inhibitory concentration (IC50) is 100 to 1000 nM.

As for `O=C1CNC(=O)[C@@H](Cc2ccc(NC(=O)[C@H](Cc3ccccc3Cl)NC(=O)CN3CCCC3)cc2)NC(=O)CC2(CCCC2)CC(=O)NCCCCCN1` [Compound 301], the IC50 lay in the range of 1000 to 10000 nM.

Take `O=C1CNC(=O)[C@@H](Cc2ccc(NC(=O)[C@H](Cc3ccsc3)NC(=O)Cc3ccccc3)cc2)NC(=O)CC2(CCCC2)CC(=O)NCCCCCN1` [Compound 229]: the IC50 was less than 100 nM.

Turning to `CC(C)(C)OC[C@@H]1NC(=O)[C@@H](Cc2ccc(NC(=O)[C@H](Cc3ccccc3Cl)NC(=O)Cc3ccccc3)cc2)NC(=O)CC2(CCCC2)CC(=O)NCCCCCNC1=O` [Compound 320], the IC50 is 100 to 1000 nM.

Turning to `COC(=O)[C@@H]1CCCCNC(=O)CC2(CCCC2)CC(=O)N[C@H](Cc2ccc(NC(=O)[C@H](Cc3ccccc3Cl)NC(=O)Cc3ccccc3)cc2)C(=O)NCC(=O)N1` [Compound 285], the IC50 is less than 100 nM.

In the case of `CC(=O)N[C@H](C(=O)Nc1ccc(C[C@H]2NC(=O)CC(C)(C)CC(=O)NCCCCCNC(=O)CNC2=O)cc1)C1CCCCC1` [Compound 252], the 50% inhibitory concentration (IC50) lay in the range of 1000 to 10000 nM.

Consider `CN1CCNC(=O)CNC(=O)[C@@H](Cc2ccc(NC(=O)[C@H](Cc3ccccc3Cl)NC(=O)Cc3ccccc3)cc2)NC(=O)CC2(CCCC2)CC(=O)NCC1` [Compound 323], for which the IC50 was in the range of 100 to 1000 nM.

As to `O=C1CNC(=O)[C@@H](Cc2ccc(NC(=O)[C@H](Cc3ccccc3Cl)NC(=O)Cc3ccc(F)cc3F)cc2)NC(=O)CC2(CCCC2)CC(=O)NCCCCCN1` [Compound 296], the IC50 is less than 100 nM.

In the case of `O=C1CC2(CCCC2)CC(=O)N[C@H](Cc2ccc(NC(=O)[C@H](Cc3ccccc3Cl)NC(=O)Cc3ccccc3)cc2)C(=O)N[C@@H](CO)C(=O)NCCCCCN1` [Compound 319], the IC50 is 100 to 1000 nM.

For the compound `O=C1CNC(=O)[C@@H](Cc2ccc(NC(=O)[C@H](Cc3ccccc3Cl)NC(=O)c3ccccc3O)cc2)NC(=O)CC2(CCCC2)CC(=O)NCCCCCN1` [Compound 330], the IC50 fell in the range of 100 to 1000 nM.

As for `O=C1CNC(=O)[C@@H](Cc2ccc(NC(=O)[C@H](Cc3ccccc3Cl)NC(=O)c3ccc(F)c(F)c3)cc2)NC(=O)CC2(CCCC2)CC(=O)NCCCCCN1` [Compound 297], the IC50 is less than 100 nM.

On to `CN1CCCCCNC(=O)CNC(=O)[C@@H](Cc2ccc(NC(=O)[C@@H](NC(=O)Cc3ccc(CO)cc3)C3CCCCC3)cc2)NC(=O)CC2(CCCC2)CC1=O` [Compound 343], for which the concentration for half-maximal inhibition (IC50) was 100 to 1000 nM.

Turning to `O=C1CC2(CCCC2)CC(=O)N[C@H](Cc2ccc(NC(=O)[C@H](Cc3ccccc3Cl)NC(=O)c3ccc(F)cc3)cc2)C(=O)N[C@@H](Cc2ccccc2)C(=O)NCCCCCN1` [Compound 309], the half-inhibitory concentration (IC50) lay in the range of 100 to 1000 nM.

In the case of `C[C@H]1C(=O)NCCCCCNC(=O)CC2(CCCC2)CC(=O)N[C@H](Cc2ccc(NC(=O)[C@H](Cc3ccccc3Cl)NC(=O)Cc3ccccc3)cc2)C(=O)N1C` [Compound 291], the half-maximal inhibitory concentration (IC50) fell in the range of 1000 to 10000 nM.

As for `O=C1CC2(CCCC2)CC(=O)N[C@H](Cc2ccc(NC(=O)[C@@H](NC(=O)Cc3ccc(CO)cc3)C3CCCCC3)cc2)C(=O)NCCCCCCCCN1` [Compound 337], the IC50 lay within 100 to 1000 nM.

Consider `O=C1CCCCCNC(=O)CNC(=O)[C@@H](Cc2ccc(NC(=O)[C@H](Cc3ccccc3Cl)NC(=O)Cc3ccccc3)cc2)NC(=O)CC2(CCCCC2)CN1` [Compound 286], for which the IC50 fell in the range of 100 to 1000 nM.

Take `O=C1CNC(=O)[C@@H](Cc2ccc(NC(=O)[C@H](Cc3ccccc3Cl)NC(=O)c3cc(F)c(F)c(F)c3)cc2)NC(=O)CC2(CCCC2)CC(=O)NCCCCCN1` [Compound 326]: the IC50 fell in the range of 100 to 1000 nM.

With `O=C1CNC(=O)[C@@H](Cc2ccc(NC(=O)[C@H](Cc3ccc(F)cc3Cl)NC(=O)c3ccc(F)cc3)cc2)NC(=O)CC2(CCCC2)CC(=O)NCCOCCN1` [Compound 324], the concentration for half-maximal inhibition (IC50) lay within 100 to 1000 nM.

With `O=C1CNC(=O)[C@@H](Cc2ccc(NC(=O)[C@H](Cc3ccccc3Cl)NC(=O)c3ccc(CO)cc3)cc2)NC(=O)CC2(CCCC2)CC(=O)NCCCCCN1` [Compound 219], the IC50 was in the range of 100 to 1000 nM.

For `O=C1CNC(=O)[C@@H](Cc2ccc(NC(=O)[C@H](Cc3ccccc3Cl)NC(=O)Cc3ccc(O)cc3)cc2)NC(=O)CC2(CCCC2)CC(=O)N[C@H](C(=O)O)CCCCN1` [Compound 265], the IC50 was less than 100 nM.

Regarding `CC1(C)CC(=O)NCCCCCNC(=O)CNC(=O)[C@@H](Cc2ccc(NC(=O)[C@H](Cc3cccs3)NC(=O)Cc3ccccc3)cc2)NC(=O)C1` [Compound 255], the IC50 was in the range of 1000 to 10000 nM.

Consider `O=C1CNC(=O)[C@@H](Cc2ccc(NC(=O)[C@H](NC(=O)Cc3ccccc3)C3CCCCC3)cc2)NC(=O)CC2(CCCC2)CC(=O)NCCCCCN1` [Compound 315], for which the IC50 lay within 1000 to 10000 nM.

As for `COC(=O)[C@@H]1CCCCNC(=O)CNC(=O)[C@@H](Cc2ccc(NC(=O)[C@H](Cc3ccccc3Cl)NC(=O)Cc3ccc(O)cc3)cc2)NC(=O)CC2(CCCC2)CC(=O)N1` [Compound 249], the IC50 is less than 100 nM.
